The target of one assay is T1, Streptokinase A (Streptococcus pyogenes serotype M1, UniProt P10520).
T1 sequence (P10520 whole entry): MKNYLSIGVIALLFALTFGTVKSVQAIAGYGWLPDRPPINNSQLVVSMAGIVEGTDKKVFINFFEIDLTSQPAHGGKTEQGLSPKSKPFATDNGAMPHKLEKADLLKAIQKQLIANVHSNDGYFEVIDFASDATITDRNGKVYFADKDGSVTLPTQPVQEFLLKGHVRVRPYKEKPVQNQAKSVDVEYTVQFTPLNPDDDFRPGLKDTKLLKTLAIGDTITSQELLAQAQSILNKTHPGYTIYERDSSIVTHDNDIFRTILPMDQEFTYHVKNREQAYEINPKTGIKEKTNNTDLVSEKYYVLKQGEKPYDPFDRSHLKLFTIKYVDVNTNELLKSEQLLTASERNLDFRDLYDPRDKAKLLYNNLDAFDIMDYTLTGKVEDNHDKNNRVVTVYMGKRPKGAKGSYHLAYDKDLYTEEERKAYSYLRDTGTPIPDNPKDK
The assay is described as follows: S. pyogenes streptokinase expression inhibitors, potency, dose response, plasminogen activation absorbance, OD405 (AID 1914).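 Note: secreted streptokinase activity via plasminogen activation per viability signal from cell pellet.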 It is filed as functional, Streptococcus pyogenes M1 GAS.

Assay [1] in a line: cytotoxicity toward DRD oncogenic fibroblasts, dose response, cell-based, non-viral oncogenic, luminescence (AID 1934). The following applies: Homo sapiens. Format: functional.
In assay [2] the target is Neurotensin receptor type 1 (Homo sapiens, UniProt P30989). It is filed as functional.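 Note: Image-based confirmatory dose-response assay measuring agonist activity at NTR1; NTR1-expressing U2OS osteosarcoma cells imaged for beta-arrestin GFP spot formation; agonist potency where compounds increase beta-arrestin recruitment.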
Neurotensin receptor type 1, sequence (P30989 whole entry): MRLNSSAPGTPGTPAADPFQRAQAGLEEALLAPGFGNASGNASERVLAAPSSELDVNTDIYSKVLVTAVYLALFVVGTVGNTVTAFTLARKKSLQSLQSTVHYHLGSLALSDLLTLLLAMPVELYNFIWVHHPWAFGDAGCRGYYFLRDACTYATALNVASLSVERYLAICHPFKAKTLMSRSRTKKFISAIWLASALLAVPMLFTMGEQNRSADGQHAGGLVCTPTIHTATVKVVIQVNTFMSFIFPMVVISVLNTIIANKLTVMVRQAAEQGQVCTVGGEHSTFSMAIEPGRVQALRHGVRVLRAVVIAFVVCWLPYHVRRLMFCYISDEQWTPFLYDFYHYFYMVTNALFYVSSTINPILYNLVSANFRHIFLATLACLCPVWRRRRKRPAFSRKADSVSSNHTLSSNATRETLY

This is an account of results in ChEMBL document CHEMBL1201862, “PubChem BioAssay data set” (2004).

Calls of active or inactive are those of the source. Cut-off read from the data, not from the text of the source, for most assays here: actives have a measured EC50 and inactives only a lower limit. A value given as a limit tells only on which side of the number the result lay.

The term EC50 denotes the concentration needed to bring the measured effect to its halfway point.

On to `COc1ccc(-c2cc(-c3ccc(C)cc3)[nH]n2)c(O)c1`, for which the EC50 at Streptokinase A is > 150 µM (not active). Regarding `COC(=O)C[C@]1(C(=O)OC)CN(C#N)N(c2ccc(Cl)cc2)C12c1ccccc1-c1ccccc12`, the EC50 was 3.62 µM (active) in assay [1] and 3.27 µM (active) in assay [2].
